Entries after “also recorded” stand apart in the source; their conditions may differ.
Columns and labels:
CA1262-PDX-TNBC = test: Patient-derived xenograft; assay type: in vivo, mouse; settings: 50 mg/kg orally, NSG mice
From the text: (§1) Different patient-derived xenograft (PDX) of TNBC were used in this study. The Institutional Animal Care & Use Program of Oregon Health and Science University approved the protocol (#IP00003247). SUTI151-PDX-TNBC was kindly provided by Stefanie S. Jeffrey, MD, Stanford University, CA, USA.[48] CA1616-PDX-TNBC, CA1262-PDX-TNBC, and MA2821-PDX-TNBC were procured from the NCI Patient-Derived Models Repository (PDMR). Information of the PDX samples from NCI can be accessed at https://pdmr.cancer.gov/models/pdx.htm. 6–8 weeks old NSG (female) mice were anesthetized with isoflurane and tumor cells were xenografted into 5th mammary fat pad. Post-xenograft, once tumors reached a size of 50–100 mm^3, SU056 treatment (50 mg/kg body weight administered by oral gavage, 5 days per week) was started. At the end of treatment, mice were euthanized under deep anesthesia and tumors were surgically removed, measured, and weighed.

SUTI151-PDX-TNBC = test: Patient-derived xenograft; assay type: in vivo, mouse; settings: 50 mg/kg orally, NSG mice
From the text: as §1

CA1616-PDX-TNBC = test: Patient-derived xenograft; assay type: in vivo, mouse; settings: 50 mg/kg orally, NSG mice
From the text: as §1

MA2821-PDX-TNBC = test: Patient-derived xenograft; assay type: in vivo, mouse; settings: 50 mg/kg orally, NSG mice
From the text: as §1

[1] = Maximum tolerated dose / acute oral toxicity; assay type: in vivo, mouse; settings: for Body Weight, Mean / Toxicity (death/test): ICR (Female) mice
Description: The acute oral toxicity of SU056 was evaluated by Eurofins lab services (Eurofins discovery). The oral toxicity study was performed in female rats and mice for multiple escalating doses (100 mg/kg, 200 mg/kg, 400 mg/kg). Rats and mice were monitored for their behavioral, neurological and autonomic signs after administration of SU056. The response was recorded as 0; no adverse effect, ±1 mild adverse effect, ±2, moderate adverse effect and ±3 severe adverse effect.

[2] = tested on: CA1262-PDX-TNBC and MA2821-PDX-TNBC tumors; test: Immunoblot of PDX tumor lysates; assay type: in vivo, mouse; settings: daily oral 50 mg/kg for 3 weeks
Description: (§2) MDA-MB-231, MDA-MB-468, and SUM159 cells were grown to 60–70% confluency and treated with DMSO and SU056 (1 μM) for 12 and 24 h. After the specific treatment time was over, total cell lysates were prepared in non-denaturing lysis buffer. For protein lysate from tumors: randomly selected frozen sample; three from vehicle and SU056 treated group were homogenized in non-denaturing lysis buffer at 4°C for 5 min. 10 μg of protein lysate per sample was resolved on 8–16% SDS-PAGE. Membranes were probed with specific primary antibodies followed by detection with HRP-conjugated appropriate secondary antibodies, visualized by enhanced chemiluminescence detection system, and imaged using an iBright imaging system (Thermo Fisher, USA).

kinases = test: KINOMEscan multi-kinase profiling; assay type: binding; settings: 10 μM
Description: The multi-kinase inhibition profile of SU056 was determined via the KINOMEScan screening platform (Eurofins discovery). The screening was performed at 10 μM of SU056. The kinase dendrogram was developed using the TREEspot interaction maps online application (Eurofins Discovery). The results are expressed as residual activity (% Control).

[3] = tested on: pharmacology panel (receptors, channels, transporters, enzymes); test: In vitro radioligand binding and enzyme and uptake assay panel; settings: 10 μM
Description: (§3) The compound SU056 was tested for its radioligand binding and enzyme and uptake characteristics by Eurofins lab services (Eurofins discovery). The screening was performed at 10 μM of SU056. The binding was calculated as % inhibition of the binding of a radioactively labeled ligand specific to each target. The SU056 enzyme inhibition effect was determined as % inhibition of control enzyme activity.

[4] = tested on: TNBC cells (MDA-MB-231, MDA-MB-468, SUM159); test: Immunoblot assay of cell lysates; assay type: cell-based, human
Description: as §2

COX2 = biological target: T1, COX2 (Homo sapiens, UniProt P35354); test: Enzyme assay (in vitro pharmacology); assay type: biochemical; settings: 10 μM
T1 construct: purchased Eurofins Discovery
T1 sequence (P35354 18-604): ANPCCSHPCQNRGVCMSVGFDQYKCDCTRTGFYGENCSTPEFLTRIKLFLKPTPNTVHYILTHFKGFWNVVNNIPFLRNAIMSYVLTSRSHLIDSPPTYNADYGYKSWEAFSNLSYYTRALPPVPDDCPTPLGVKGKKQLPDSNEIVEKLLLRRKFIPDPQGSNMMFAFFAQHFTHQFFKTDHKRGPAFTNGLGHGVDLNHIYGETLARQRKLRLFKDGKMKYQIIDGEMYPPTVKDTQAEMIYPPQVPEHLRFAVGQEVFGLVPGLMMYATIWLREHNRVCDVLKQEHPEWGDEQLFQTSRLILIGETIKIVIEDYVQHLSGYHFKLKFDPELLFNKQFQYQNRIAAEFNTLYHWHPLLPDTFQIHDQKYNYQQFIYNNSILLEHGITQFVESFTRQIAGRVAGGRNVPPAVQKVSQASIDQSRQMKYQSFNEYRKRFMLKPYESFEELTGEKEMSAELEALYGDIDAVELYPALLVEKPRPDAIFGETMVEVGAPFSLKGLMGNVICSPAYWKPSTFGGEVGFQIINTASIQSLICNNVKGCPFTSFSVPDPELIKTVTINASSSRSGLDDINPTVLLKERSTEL
Description: as §3

PDE4D2 = biological target: T2, PDE4D2 (Homo sapiens, UniProt Q08499); test: Enzyme assay (in vitro pharmacology); assay type: biochemical; settings: 10 μM
T2 construct: purchased Eurofins Discovery
T2 sequence (Q08499 303-809 limits assumed): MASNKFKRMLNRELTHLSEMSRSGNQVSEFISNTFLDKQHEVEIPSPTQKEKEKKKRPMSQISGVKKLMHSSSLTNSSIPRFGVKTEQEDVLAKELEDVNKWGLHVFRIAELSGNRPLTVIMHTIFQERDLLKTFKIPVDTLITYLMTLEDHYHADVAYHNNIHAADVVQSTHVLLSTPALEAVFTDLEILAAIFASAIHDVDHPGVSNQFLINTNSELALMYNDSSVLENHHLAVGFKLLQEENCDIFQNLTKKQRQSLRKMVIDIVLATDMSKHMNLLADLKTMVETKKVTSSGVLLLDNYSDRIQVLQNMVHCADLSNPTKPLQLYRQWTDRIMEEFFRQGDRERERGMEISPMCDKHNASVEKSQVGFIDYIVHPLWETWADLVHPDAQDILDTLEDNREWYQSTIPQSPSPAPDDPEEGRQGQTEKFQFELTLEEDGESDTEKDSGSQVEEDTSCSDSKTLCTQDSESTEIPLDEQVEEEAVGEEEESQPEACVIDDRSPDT
Description: as §3

MDA-MB-468 cells = test: Cell cycle analysis (PI, flow cytometry); assay type: cell-based, human
Description: (§4) TNBC cells (MDA-MB-231, MDA-MB-468, and SUM159) were seeded (40,000 cells per well) in 12 well plates and grown in regular conditions. The next day, cells were treated with DMSO (control) and indicated SU056 concentrations. At the end of each time point, cells were processed for PI staining as described earlier.[49] Synchronization of cells in G2/M phase was done using nocodazole (200 nM for 16 h) followed by SU056 treatment for 24 h. Cell cycle distribution was then analyzed by flow cytometry using a BD FACS Calibur (BD, USA).

MDA-MB-231 cells = test: Cell cycle analysis (PI, flow cytometry); assay type: cell-based, human
Description: as §4

[5] = nocodazole 200 nM 16 h, then SU056 24 h

For `O=C1OCC2=C1C(c1cccc(F)c1)c1cc3c(cc1N2CCO)OCO3` (centres unmarked) [SU056, 9-(3-fluorophenyl)-5-(2-hydroxyethyl)-6,9-dihydro-[1,3]dioxolo[4,5-g]furo[3,4-b]quinolin-8(5H)-one], the “tumor volume reduced compared to vehicle control” value (CA1262-PDX-TNBC) was 49.8%, the tumor weight decreased (CA1262-PDX-TNBC) was 34.67% and the “reduction in tumor weight” value (SUTI151-PDX-TNBC) was 29%. The “tumor volume reduced compared to control” value (SUTI151-PDX-TNBC) was 37%, the “tumor volume reduced compared to vehicle control” value (CA1616-PDX-TNBC) was 63.1% and the tumor weight decreased (CA1616-PDX-TNBC) was 43.6%. For the same compound, the tumor growth decreased (MA2821-PDX-TNBC) was 51.35%, the tumor weight reduced (MA2821-PDX-TNBC) was 48.89% and the “Body Weight, Mean” value ([1]; 100 mg/kg, 0 hr) was 23.0 gm. The “Toxicity (death/test)” value ([1]; 100 mg/kg, 15 min) was 0/3, the “Toxicity (death/test)” value ([1]; 100 mg/kg, 1 hr) was 0/3 and the “Body Weight, Mean” value ([1]; 100 mg/kg, 24 hr) was 23.0 gm. The “Toxicity (death/test)” value ([1]; 100 mg/kg, 24 hr) was 0/3, the “Body Weight, Mean” value ([1]; 100 mg/kg, 48 hr) was 23.3 gm and the “Toxicity (death/test)” value ([1]; 100 mg/kg, 48 hr) was 0/3. The “Body Weight, Mean” value ([1]; 100 mg/kg, 72 hr) was 24.3 gm, the “Toxicity (death/test)” value ([1]; 100 mg/kg, 72 hr) was 0/3 and the “Body Weight, Mean” value ([1]; 200 mg/kg, 0 hr) was 23.7 gm. For the same compound, the “Toxicity (death/test)” value ([1]; 200 mg/kg, 15 min) was 0/3, the “Toxicity (death/test)” value ([1]; 200 mg/kg, 1 hr) was 0/3 and the “Body Weight, Mean” value ([1]; 200 mg/kg, 24 hr) was 24.0 gm. For the same compound, the “Toxicity (death/test)” value ([1]; 200 mg/kg, 24 hr) was 0/3, the “Body Weight, Mean” value ([1]; 200 mg/kg, 48 hr) was 24.0 gm and the “Toxicity (death/test)” value ([1]; 200 mg/kg, 48 hr) was 0/3. For the same compound, the “Body Weight, Mean” value ([1]; 200 mg/kg, 72 hr) was 24.3 gm, the “Toxicity (death/test)” value ([1]; 200 mg/kg, 72 hr) was 0/3 and the “Body Weight, Mean” value ([1]; 400 mg/kg, 0 hr) was 22.7 gm. For the same compound, the “Toxicity (death/test)” value ([1]; 400 mg/kg, 15 min) was 0/3, the “Toxicity (death/test)” value ([1]; 400 mg/kg, 1 hr) was 0/3 and the “Body Weight, Mean” value ([1]; 400 mg/kg, 24 hr) was 22.7 gm. For the same compound, the “Toxicity (death/test)” value ([1]; 400 mg/kg, 24 hr) was 0/3, the “Body Weight, Mean” value ([1]; 400 mg/kg, 48 hr) was 23.3 gm and the “Toxicity (death/test)” value ([1]; 400 mg/kg, 48 hr) was 0/3. The “Body Weight, Mean” value ([1]; 400 mg/kg, 72 hr) was 24.3 gm, the “Toxicity (death/test)” value ([1]; 400 mg/kg, 72 hr) was 0/3 and the “behavioral, neurological, and anatomical signs of toxicity and morbidity” value ([1]; mice, 100, 200, and 400 mg/kg oral gavage, 72 h) was “not affected; also recorded: no observable changes”. For the same compound, the “levels of YB-1 and RPL-11 in tumors” value [2] was “decrease”, the kinase activity inhibition (kinases) was “does not inhibit” and the “effect on major pharmacological parameters (binding and enzyme assays)” value [3] was “does not affect”. For the same compound, the “RPLs (RPL36, RPL35, RPL32, RPL23A, RPL15, RPL11, RPL9)” value ([4]; 1 μM, 12 and 24 h) was “decreased”, the YB-1 expression ([4]; 1 μM, 12 and 24 h) was “decreased” and the c-Myc expression ([4]; 1 μM, 12 and 24 h) was “decreased”. For the same compound, the “expression of RPSs” value ([4]; 1 μM, 12 and 24 h) was “lower expression”, the “levels of translation initiation factors” value ([4]; 1 μM, 12 and 24 h) was “decreased” and the “overall levels of mTOR” value ([4]; 1 μM, 12 and 24 h) was “decreased”. For the same compound, the “phosphorylation of mTOR (S2448)” value ([4]; 1 μM, 12 and 24 h) was “inhibited”, the “phosphorylation of p70S6 kinase (T389 and S371) and S6R (S235/S236)” value ([4]; 1 μM, 12 and 24 h) was “decreased” and the “phospho-histone H3 (Ser10), mitotic phase marker” value ([4]; 12 and 24 h) was “arrests TNBC cells in the mitotic phase”. The “integrated stress response activation (PERK, eIF2α, ATF4)” value ([4]; MDA-MB-231 and MDA-MB-468, 1 μM) was “did not induce”, the “cell cycle regulatory proteins (p21 and p27)” value ([4]; MDA-MB-231 and MDA-MB-468, 1 μM, 12 and 24 h) was “moderate increase” and the enzyme activity (COX2) was “inhibits”. For the same compound, the enzyme activity (PDE4D2) was “inhibits”, the cell cycle effect (MDA-MB-468 cells; 0.5, 1.0, and 2.0 μM, 12 and 24 h) was “G2/M phase arrest” and the “cell death in nocodazole-synchronized cells” value (MDA-MB-468 cells; [5]) was “increased cell death”. For the same compound, the “cells in G2/M phase” value (MDA-MB-231 cells; 24 h, control 12%) was 34% and the “cell death in nocodazole-synchronized cells” value (MDA-MB-231 cells; [5]) was “increased cell death”.
